Measurements published in PMC10455339, “Combining the Peptide RWQWRWQWR and an Ethanolic Extract of Bidens pilosa Enhances the Activity against Sensitive and Resistant Candida albicans and C. auris Strains” (Journal of Fungi, 2023).
Values after ≈ are worked out from the molar mass of the structure shown. Read-outs that look alike come from different tables or passages of the source.

Experiments:
[1] = test system: C. albicans SC5314; assay: microbe, parasite or virus in culture; format: cell-based, Candida albicans; details: Candida albicans, SC5314, n = 3; for MIC: CLSI M27-A4 modified, RPMI 1640, 37 °C, 48 h, MIC = 50% growth inhibition, read-out: MIC; for MFC: subculture on SDA 24 h 37 °C, MFC = eliminates 100% of growth, read-out: MFC
Method: (§1) For the determination of the MICs, the guidelines of the Clinical Laboratory Standards Institute (CLSI BMD-M27-A4) were used with some modifications. Serial dilutions were made, for peptides from 6.25 to 200 µg/mL and for extracts from 31.2 to 2000 µg/mL, with RPMI 1640 medium in a 96-well microdilution plate (100 µL), and then 100 µL of the adjusted inoculum (0.5–2.5 × 10^3 cells/mL) was added and incubated at 37 °C, and visual and spectrophotometric reading (595 nm) was performed at 48 h. Controls: growth control in RPMI or DMSO, control with a known antifungal: FLC, C. albicans SC5314 (1 µg/mL), C. albicans 256 (64 µg/mL), C. auris 435 (8 µg/mL), and C. auris 537 (128 µg/mL), sterility controls correspond to RPMI medium and SS. The MIC was defined as the minimum concentration of peptide or extract that inhibited 50% of growth compared to the control. To determine the minimal fungicidal concentration (MFC), from the concentrations where no growth was observed, including the controls, a subculture was made on SDA and incubated for 24 h at 37 °C. The MFC was defined as the minimum concentration of peptide or extract that eliminated 100% of the growth compared to the control (n = 3).

[2] = test system: C. auris 537-PUJ-HUSI; assay: Antifungal activity (MIC/MFC), broth microdilution; format: cell-based, Candida auris; details: Candidozyma auris, 537PUJHUSI, FLC- and AmB-resistant isolate, n = 3; for MIC: CLSI M27-A4 modified, RPMI 1640, 37 °C, 48 h, MIC = 50% growth inhibition, read-out: MIC; for MFC: subculture on SDA 24 h 37 °C, MFC = eliminates 100% of growth, read-out: MFC
Method: as §1

[3] = test system: C. auris 435-PUJ-HUSI; assay: Antifungal activity (MIC/MFC), broth microdilution; format: cell-based, Candida auris; details: Candidozyma auris, 435PUJHUSI, FLC-sensitive isolate, n = 3; for MIC: CLSI M27-A4 modified, RPMI 1640, 37 °C, 48 h, MIC = 50% growth inhibition, read-out: MIC; for MFC: subculture on SDA 24 h 37 °C, MFC = eliminates 100% of growth, read-out: MFC
Method: as §1

[4] = test system: C. albicans 256-PUJ-HUSI; assay: Antifungal activity (MIC/MFC), broth microdilution; format: cell-based, Candida albicans; details: Candida albicans, 256PUJHUSI, FLC-resistant isolate, n = 3; for MIC: CLSI M27-A4 modified, RPMI 1640, 37 °C, 48 h, MIC = 50% growth inhibition, read-out: MIC; for MFC: subculture on SDA 24 h 37 °C, MFC = eliminates 100% of growth, read-out: MFC
Method: as §1

[5] = test system: C. albicans SC5314
Method: (§2) This was performed using the checkerboard test, with some adjustments. Briefly, peptide or extract with FLC, peptide with extract, and extract, peptide, and FLC (final concentrations: 0, 0.06, 0.12, 0.25, 0.50, 1, and 2 times the MIC) were mixed. […] The fractional inhibitory concentration index (FIC I) was calculated as follows: [A/MIC A] + [P/MIC P] = FIC I, where MIC A and MIC P are the MICs of the individual peptide, extract, and/or antifungal. A and P are the MICs of the same, but in combination.
(§3) The combinations were classified as synergistic (FIC I ≤ 0.5), additive (FIC I > 0.5–1), indifferent (FIC I > 1 < 4), or antagonistic (FIC I > 4).

[6] = test system: C. albicans 256
Method: as §2, §3

[7] = test system: C. auris 537
Method: as §2, §3

[8] = test system: C. auris 435
Method: as §2, §3

[9] = test system: C. albicans 256; details: previously published, cited from earlier work
Method: (§4) Table 5 Synergy test. Combination of R-1-R with FLC against C. albicans and C. auris. | column: MICR-1-R; MICFLC; R-1-R; FLC; FIC Index; MICR-1-R/R-1-R; MICFLC/FLC || Initially, the antifungal activity of mixtures of R-1-R/FLC against the C. albicans and C. auris strains was evaluated (Table 5). […] The MIC value of FLC in C. albicans SC5314 was reduced by a factor of 2, while that in C. albicans 256 was reduced by a factor of 8.

[10] = test system: C. auris 537; details: previously published, cited from earlier work
Method: as §4

[11] = test system: C. albicans; details: cited from earlier work
Text: Antifungal activity of other phenolic acids, such as chlorogenic acid, has been reported against Candida spp. resistant to FLC, generating a death process similar to apoptosis.

[12] = B. pilosa extract combined with FLC
[13] = B. pilosa extract combined with FLC, checkerboard, 37 °C, 48 h
[14] = B. pilosa extract, R-1-R and FLC combined
[15] = B. pilosa extract, R-1-R and FLC combined, checkerboard, 37 °C, 48 h
[16] = R-1-R combined with FLC, checkerboard, 37 °C, 48 h

O=C(O)/C=C/c1ccc(O)c(O)c1 [Caffeic acid]
MIC [1]: > 2000 µg/mL | MFC [1]: > 2000 µg/mL | MIC [2]: > 2000 µg/mL | MFC [2]: > 2000 µg/mL | MIC [3]: > 2000 µg/mL | MFC [3]: > 2000 µg/mL | MIC [4]: > 2000 µg/mL | MFC [4]: > 2000 µg/mL

O=C(/C=C/c1ccc(O)c(O)c1)O[C@@H](C(=O)O)[C@@H](O)C(=O)O [Caftaric acid]
MIC [1]: > 1000 µg/mL | MFC [1]: > 1000 µg/mL | MIC [2]: > 1000 µg/mL | MFC [2]: > 1000 µg/mL | MIC [3]: > 1000 µg/mL | MFC [3]: > 1000 µg/mL | MIC [4]: > 1000 µg/mL | MFC [4]: > 1000 µg/mL

O=C(/C=C/c1ccc(O)c(O)c1)O[C@@H]1C[C@](O)(C(=O)O)C[C@@H](O)[C@H]1O [Chlorogenic acid]
MIC [1]: > 1000 µg/mL | MFC [1]: > 1000 µg/mL | MIC [2]: > 1000 µg/mL | MFC [2]: > 1000 µg/mL | MIC [3]: > 1000 µg/mL | MFC [3]: > 1000 µg/mL | MIC [4]: > 1000 µg/mL | MFC [4]: > 1000 µg/mL

OC(Cn1cncn1)(Cn1cncn1)c1ccc(F)cc1F [FLC, fluconazole]
MIC alone/MIC in combination (factor of potentiation) [5, 12]: 2 | MIC in combination (E, FLC) [5, 13]: 0.125 µg/mL | MIC alone/MIC in combination (factor of potentiation) [5, 14]: 8 | MIC in combination (E, R-1-R, FLC) [5, 15]: 0.06 µg/mL | MIC alone/MIC in combination (factor of potentiation) ([5]; R-1-R combined with FLC): 2 | MIC in combination (R-1-R, FLC) [5, 16]: 0.0625 µg/mL | MIC alone/MIC in combination (factor of potentiation) [6, 12]: 4 | MIC in combination (E, FLC) [6, 13]: 32 µg/mL | MIC alone/MIC in combination (factor of potentiation) [6, 14]: 8 | MIC in combination (E, R-1-R, FLC) [6, 15]: 4 µg/mL | MIC alone/MIC in combination (factor of potentiation) [7, 12]: 4 | MIC in combination (E, FLC) [7, 13]: 32 µg/mL | MIC alone/MIC in combination (factor of potentiation) [7, 14]: 16 | MIC in combination (E, R-1-R, FLC) [7, 15]: 8 µg/mL | MIC alone/MIC in combination (factor of potentiation) [8, 12]: 1 | MIC in combination (E, FLC) [8, 13]: 8 µg/mL | MIC alone/MIC in combination (factor of potentiation) [8, 14]: 4 | MIC in combination (E, R-1-R, FLC) [8, 15]: 1 µg/mL | MIC alone/MIC in combination (factor of potentiation) ([8]; R-1-R combined with FLC): 4 | MIC in combination (R-1-R, FLC) [8, 16]: 2 µg/mL | MIC alone/MIC in combination (factor of potentiation) ([9]; R-1-R combined with FLC): 8 | MIC in combination (R-1-R, FLC) ([9]; R-1-R combined with FLC): 4 µg/mL | MIC of the agent alone (MICR-1-R, MICFLC) ([9]; checkerboard R-1-R + FLC): 32 µg/mL | MIC alone/MIC in combination (factor of potentiation) ([10]; R-1-R combined with FLC): 8 | MIC in combination (R-1-R, FLC) ([10]; R-1-R combined with FLC): 8 µg/mL | MIC of the agent alone (MICR-1-R, MICFLC) ([10]; checkerboard R-1-R + FLC): 64 µg/mL

O=C(O)c1cc(O)c(O)c(O)c1 [Gallic acid]
MIC [1]: 125 µg/mL (≈ 0.735 mM) | MFC [1]: 250 µg/mL (≈ 1.47 mM) | MIC [2]: 62.5 µg/mL (≈ 0.367 mM) | MFC [2]: 1000 µg/mL (≈ 5.88 mM) | MIC [3]: 125 µg/mL (≈ 0.735 mM) | MFC [3]: 1000 µg/mL (≈ 5.88 mM) | MIC [4]: 62.5 µg/mL (≈ 0.367 mM) | MFC [4]: 125 µg/mL (≈ 0.735 mM)

C[C@@H]1O[C@@H](OC[C@H]2O[C@@H](Oc3c(-c4ccc(O)c(O)c4)oc4cc(O)cc(O)c4c3=O)[C@H](O)[C@@H](O)[C@@H]2O)[C@H](O)[C@H](O)[C@H]1O [Rutin]
MIC [1]: > 2000 µg/mL | MFC [1]: > 2000 µg/mL | Reported active concentration [11]: 1000 µg/mL | MIC [2]: > 2000 µg/mL | MFC [2]: > 2000 µg/mL | MIC [3]: > 2000 µg/mL | MFC [3]: > 2000 µg/mL | MIC [4]: > 2000 µg/mL | MFC [4]: > 2000 µg/mL

FKCRRWQWRM [Peptide 2, short peptide derived from LfcinB, …]
MIC ([11]; reported against other C. albicans strains): 17.3 to 17.5 µM

FKCRRWQWRMKKLGA [LfcinB-20, short peptide derived from LfcinB, printed …]
MIC ([11]; reported against C. albicans strains): 8 µg/mL
